Results on 5 compounds are retold here after US20160194308A1, “NOVEL PIPERIDINYL BENZOIMIDAZOLE DERIVATIVES AS MPGES-1 INHIBITORS” (NovaSAID AB, priority 2013, published 2016).

Where only a bound is given, the exact number is not on record here.

Series [1] concerns the target T1, hERG potassium currents (CHO-K1 cells stably transfected with hERG) (Homo sapiens, UniProt Q12809).
T1 construct: expressed in transfected cells; host or cells: CHO-K1 cells (American Tissue Culture Collection), stably transfected
Put plainly: Automated whole-cell patch-clamp hERG assay. The class given is cell-based. To be noted: for IC50: Qpatch, tail current, CHO-K1 cells, 0.39 μM to 100 μM cumulatively; for IC50 ratio hERG/mPGEs-1: ratio of hERG IC50 to human mPGEs-1 IC50. The method, then: The automated whole-cell patch-clamp hERG assay uses CHO-K1 cells obtained from American Tissue Culture Collection. hERG cDNA (GenBank sequence NM_000238) was subcloned into pSI vector (Promega). The CHO-K1 cells were co-transfected with this construct and pPUR (containing puromycin selective marker, BD Bioscience). After selection in puromycin for 10 days, single colonies were selected and verified with hERG potassium currents. The stably transfected cells were cultured in F-12 Kaighn's Nutrient Mixture medium (Invitrogen)+10% FBS at 37 C for 1-3 days. Subsequently the cells were harvested by trypsination and kept in serum free medium at room temperature before recording. The cells were washed and resuspended in extracellular solution before being applied to the patch clamp sites.
After whole cell configuration was achieved, the cell was held at −80 mV. A 50 millisecond pulse to −40 mV was delivered to measure the leaking current, which was subtracted from the tail current on-line. Then the cell was de-polarized to +20 mV for 2 seconds, followed by a second pulse to −40 mV to reveal hERG tail current. The paradigm was delivered once every 5 seconds to monitor the current amplitude. The extracellular solution (control) was applied first and the cell was stabilized in extracellular solution for 5 minutes. Then the test compound was applied from low concentrations (0.39 μM) to high concentrations (100 μM) cumulatively. The cell was incubated with each test concentration for 5 minutes. During the incubation, the cell was repeatedly stimulated using the voltage protocol described above, and the tail current amplitude was continuously monitored.
Data were acquired by Qpatch (Sophion Bioscience) and the degree of inhibition (%) was obtained by measuring the tail current amplitude before and after test compound incubation (the difference in current was normalized to control and multiplied by 100 to obtain the percent of inhibition). Concentration (log) response curves were fitted to a logistic equation (three parameters assuming complete block of the current at very high test compound concentrations) to generate estimates of the 50% inhibitory concentration (IC50). The concentration-response relationship of each compound was constructed from the percentage reductions of current amplitude by sequential concentrations (0.39 μM to 100 μM).
Further background information on the hERG assay is available in Expert Opin. Ther. Targets (2006) 10(2):319-327.
On the technique in general: Patch clamp records ionic current or voltage across a cell membrane.

Series [2] addresses T2, recombinant membrane-bound human mPGEs-1 (Homo sapiens, UniProt O14684).
T2 sequence (O14684 1-152): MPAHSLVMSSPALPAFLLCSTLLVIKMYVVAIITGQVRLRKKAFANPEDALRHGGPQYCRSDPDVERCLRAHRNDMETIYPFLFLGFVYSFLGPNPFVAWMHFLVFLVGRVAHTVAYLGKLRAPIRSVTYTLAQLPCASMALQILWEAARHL
Put plainly: Thiobarbituric acid assay (TBA-MDA assay), inhibition of mPGEs-1. Type of series: biochemical. To be noted: arithmetic mean values, human mPGEs-1 TBA-MDA assay. From the text: Malondialdehyde is a product of lipid peroxidation and reacts with thiobarbituric acid forming a red product that absorbs light at 535 nm (W. G. Niehaus, Jr and B. Samuelsson, Eur. J. Biochem 6, 126 (1968)) and is also fluorescent. The extinction coefficient of the TBA-MDA conjugate is 1.56×10^5 M^−1 cm^−1 (E. D. Wills. Biochem. J. 113, 315 (1969). The method used for detection of inhibition of mPGEs-1 is based on the detection of the amount of remaining PGH2. This method was described more than 20 years ago by Basevich et al (Bioorg. Khim. 1983, 9(5), 658-665).
The assay used was a modified variant and used citric acid instead of the TCA-TBA-HCl reagent described in the original assay. In this assay, recombinant membrane-bound human mPGEs-1 was incubated with PGH2. The reaction was stopped by adding citric acid to a final pH 3 and a large excess of iron(II) chloride (20 mM) to convert any remaining PGH2 into MDA and 12-HHT. TBA reagent was finally added (0.67%) and the samples were heated at 80° C. for 30 min. The fluorescence of the conjugate was measured at 485/545 nm.
The product of mPGEs-1 (PGE2) was not measured directly in this assay, but rather the remaining substrate (PGH2) indirectly by adding FeCl2 that converts PGH2 into MDA and 12-HHT. As a positive control, a known mPGEs-1 inhibitor, MK-886, was used and the inhibition afforded by the new inhibitors was compared with that obtained from MK-886.

T1 sequence (Q12809 whole entry): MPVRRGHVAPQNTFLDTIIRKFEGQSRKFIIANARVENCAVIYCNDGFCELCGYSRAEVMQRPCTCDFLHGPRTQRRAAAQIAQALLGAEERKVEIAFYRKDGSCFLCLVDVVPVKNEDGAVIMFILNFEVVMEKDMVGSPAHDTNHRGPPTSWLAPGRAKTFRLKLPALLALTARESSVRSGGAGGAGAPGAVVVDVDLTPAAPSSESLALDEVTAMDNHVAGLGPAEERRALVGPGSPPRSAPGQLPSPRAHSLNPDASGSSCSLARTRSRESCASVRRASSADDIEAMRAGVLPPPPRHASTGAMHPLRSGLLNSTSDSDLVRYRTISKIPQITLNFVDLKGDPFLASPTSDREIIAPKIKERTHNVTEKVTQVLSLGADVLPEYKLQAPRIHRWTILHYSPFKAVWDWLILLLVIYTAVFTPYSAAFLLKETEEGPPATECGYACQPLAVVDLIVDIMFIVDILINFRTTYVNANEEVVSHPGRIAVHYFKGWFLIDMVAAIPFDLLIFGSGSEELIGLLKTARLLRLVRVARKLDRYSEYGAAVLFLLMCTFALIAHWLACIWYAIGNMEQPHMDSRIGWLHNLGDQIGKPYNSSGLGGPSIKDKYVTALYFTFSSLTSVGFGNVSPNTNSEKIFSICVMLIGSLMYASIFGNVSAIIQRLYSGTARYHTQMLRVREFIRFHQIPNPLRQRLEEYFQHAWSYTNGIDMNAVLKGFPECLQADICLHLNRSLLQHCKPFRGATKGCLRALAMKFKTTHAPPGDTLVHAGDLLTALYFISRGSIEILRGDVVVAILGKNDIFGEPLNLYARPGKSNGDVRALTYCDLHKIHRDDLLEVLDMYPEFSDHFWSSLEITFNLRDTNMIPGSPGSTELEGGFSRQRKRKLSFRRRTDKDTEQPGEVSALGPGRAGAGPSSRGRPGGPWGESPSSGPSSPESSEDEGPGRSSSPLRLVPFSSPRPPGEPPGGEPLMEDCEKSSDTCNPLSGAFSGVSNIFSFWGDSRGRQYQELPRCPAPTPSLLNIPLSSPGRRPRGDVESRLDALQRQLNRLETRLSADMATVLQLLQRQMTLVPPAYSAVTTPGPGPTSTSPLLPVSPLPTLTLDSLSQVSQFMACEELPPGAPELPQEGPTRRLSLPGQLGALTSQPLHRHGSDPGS

With `Cc1cc2nc(N3CCC(C(=O)N[C@@H]4CCOC4)CC3)n(-c3ccc(C(F)(F)F)cn3)c2cc1Cl` [Comparative Example 4, (R)-1-(6-chloro-5-methyl-1-(5-(trifluoromethyl)pyridin-2-yl)-1H-benzo[d]imidazol-2-yl)-N-(tetrahydrofuran-3-yl)-piperidine-4-carboxamide], in series [1], the half-inhibitory concentration (IC50) was found to be 14 µM and the “IC50 ratio hERG/mPGEs-1” value is listed as 304.
For `Cc1cc2nc(N3CCC(C(=O)N[C@H]4COC[C@@H]4O)CC3)n(-c3cccc(C(F)(F)F)n3)c2cc1Cl` [Example 2, 1-(6-chloro-5-methyl-1-(6-(trifluoromethyl)pyridin-2-yl)-1H-benzo[d]imidazol-2-yl)-N-((3S,4R)-4-hydroxytetrahydrofuran-3-yl)piperidine-4-carboxamide], in series [1], the IC50 was over 100 µM and the “IC50 ratio hERG/mPGEs-1” value was over 3125. Besides, the IC50 in series [2] was 0.032 µM.
In the same order, the values of `O=C(N[C@@H]1CCOC1)C1CCN(c2nc3cc(Cl)c(Cl)cc3n2-c2cccc(C(F)(F)F)n2)CC1` [Comparative Example 5, (R)-1-(5,6-dichloro-1-(6-(trifluoromethyl)pyridin-2-yl)-1H-benzo[d]imidazol-2-yl)-N-(tetrahydrofuran-3-yl)piperidine-4-carboxamide] are 2.1 µM, 88 and 0.024 µM.
As to `Cc1cc2c(cc1Cl)nc(N1CCC(C(=O)N[C@@H]3CCOC3)CC1)n2-c1ccc(C(F)(F)F)cn1` [Comparative Example 3, (R)-1-(5-chloro-6-methyl-1-(5-(trifluoromethyl)pyridin-2-yl)-1H-benzo[d]imidazol-2-yl)-N-(tetrahydrofuran-3-yl)-piperidine-4-carboxamide], in series [1], the IC50 came out at 19 µM and the “IC50 ratio hERG/mPGEs-1” value is reported as 328.
Consider `Cc1cc2c(cc1Cl)nc(N1CCC(C(=O)N[C@H]3COC[C@@H]3O)CC1)n2-c1cccc(C(F)(F)F)n1` [Example 1, 1-(5-chloro-6-methyl-1-(6-(trifluoromethyl)pyridin-2-yl)-1H-benzo[d]imidazol-2-yl)-N-((3S,4R)-4-hydroxytetrahydrofuran-3-yl)piperidine-4-carboxamide], for which, in series [1], the IC50 is 38 µM and the “IC50 ratio hERG/mPGEs-1” value is 1000. Moreover, the IC50 in series [2] was 0.038 µM.

As usually defined, the IC50 is the concentration that gives 50% inhibition.
